The record followed here is the supplement of paper PMC10307832.

Holding throughout (test): relative viability (nuclei count vs DMSO), 5 days (fraction); higher = more cells survive
Compound in experiment [1]: CN(C)C[C@@H]1CCn2cc(c3ccccc32)C2=C(C(=O)NC2=O)c2cn(c3ccccc23)CCO1 [Ruboxistaurin] + CC1(C)CCC(c2ccc(Cl)cc2)=C(CN2CCN(c3ccc(C(=O)NS(=O)(=O)c4ccc(N[C@H](CCN5CCOCC5)CSc5ccccc5)c(S(=O)(=O)C(F)(F)F)c4)cc3)CC2)C1 [Navitoclax] (partner 0.5 µM)
The method, boiled down: (§1)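 For relative viability, nuclei counts in treated wells were divided by those in vehicle wells. Lung cancer cell lines had been pin-tool dosed in 1536-well plates the day after seeding and cultured for 5 days, then fixed and stained in one step (final 0.05% Triton X-100, 1% formaldehyde, 1 ug/ml Hoechst) and imaged at 4×. Doses were one drug alone or a fixed anchor-drug dose plus five library-drug doses (not always all listed) in √10 steps, and values are duplicate-plate medians.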

Compound in experiment [2]: CN(C)C[C@@H]1CCn2cc(c3ccccc32)C2=C(C(=O)NC2=O)c2cn(c3ccccc23)CCO1 [Ruboxistaurin] + COc1cc2c(Oc3ccc(NC(=O)C4(C(=O)Nc5ccc(F)cc5)CC4)cc3F)ccnc2cc1OCCCN1CCOCC1 [Foretinib] (partner 0.25 µM)
In a few lines:
as §1

Compound in experiment [3]: CN(C)C[C@@H]1CCn2cc(c3ccccc32)C2=C(C(=O)NC2=O)c2cn(c3ccccc23)CCO1 [Ruboxistaurin] + Cc1nc(Nc2ncc(C(=O)Nc3c(C)cccc3Cl)s2)cc(N2CCN(CCO)CC2)n1 [Dasatinib] (partner 0.075 µM)
In a few lines:
as §1

Compound in the experiment “Ruboxistaurin + Olaparib”: CN(C)C[C@@H]1CCn2cc(c3ccccc32)C2=C(C(=O)NC2=O)c2cn(c3ccccc23)CCO1 [Ruboxistaurin] + O=C(c1cc(Cc2n[nH]c(=O)c3ccccc23)ccc1F)N1CCN(C(=O)C2CC2)CC1 [Olaparib] (partner 8 µM)
The method, boiled down:
as §1

Compound in experiment [4]: CN(C)C[C@@H]1CCn2cc(c3ccccc32)C2=C(C(=O)NC2=O)c2cn(c3ccccc23)CCO1 [Ruboxistaurin] + Nc1ncn([C@H]2C[C@H](O)[C@@H](CO)O2)c(=O)n1 [Decitabine] (partner 2 µM)
In a few lines:
as §1

Turning to NCI-H838, the relative viability in experiment [1] (first compound 0.08 µM) was 1.38; in experiment [1] (first compound 0.8 µM), 1.05; in experiment [1] (first compound 2.53 µM), 1.3; in experiment [1] (first compound 8 µM), 0.979; in experiment [2] (first compound 0.08 µM), 1.13; in experiment [2] (first compound 0.8 µM), 0.923. In addition, the relative viability is 1.19 in experiment [2] (first compound 2.53 µM); 0.998 in experiment [2] (first compound 8 µM); 0.327 in experiment [3] (first compound 0.08 µM); 0.209 in experiment [3] (first compound 0.8 µM); 0.286 in experiment [3] (first compound 2.53 µM); 0.326 in experiment [3] (first compound 8 µM). The relative viability is 0.867 with Ruboxistaurin + Olaparib (first compound 0.08 µM); 0.751 in the experiment with Ruboxistaurin + Olaparib (first compound 0.8 µM); 0.838 with Ruboxistaurin + Olaparib (first compound 2.53 µM); 0.641 in the experiment with Ruboxistaurin + Olaparib (first compound 8 µM); 0.476 in experiment [4] (first compound 0.08 µM); 0.445 in experiment [4] (first compound 0.8 µM). In addition, the relative viability in experiment [4] (first compound 2.53 µM) is 0.526; in experiment [4] (first compound 8 µM), 0.583.
For the cell line NCI-H3122, the relative viability in experiment [1] (first compound 0.08 µM) was determined as 1.02; in experiment [1] (first compound 0.8 µM), 0.919; in experiment [1] (first compound 2.53 µM), 1; in experiment [1] (first compound 8 µM) it was 1.09; in experiment [2] (first compound 0.08 µM), 0.938; in experiment [2] (first compound 0.8 µM), 0.982. The relative viability in experiment [2] (first compound 2.53 µM) came to 1.01; in experiment [2] (first compound 8 µM), 0.975; in experiment [3] (first compound 0.08 µM), 0.953; in experiment [3] (first compound 0.8 µM) it was 0.922; in experiment [3] (first compound 2.53 µM) it was 0.753; in experiment [3] (first compound 8 µM), 0.96. The relative viability came out at 0.743 in the experiment with Ruboxistaurin + Olaparib (first compound 0.08 µM); 0.581 with Ruboxistaurin + Olaparib (first compound 0.8 µM); 0.559 with Ruboxistaurin + Olaparib (first compound 2.53 µM); 0.572 with Ruboxistaurin + Olaparib (first compound 8 µM); 0.535 in experiment [4] (first compound 0.08 µM); 0.376 in experiment [4] (first compound 0.8 µM). The relative viability in experiment [4] (first compound 2.53 µM) was 0.466; in experiment [4] (first compound 8 µM), 0.426.
With SK-MES-1, the relative viability in experiment [1] (first compound 0.08 µM) came to 1.35; in experiment [1] (first compound 0.8 µM) it was 1.15; in experiment [1] (first compound 2.53 µM) it was 1.4; in experiment [1] (first compound 8 µM), 1.09; in experiment [2] (first compound 0.08 µM), 1.08; in experiment [2] (first compound 0.8 µM), 0.791. Besides, the relative viability amounted to 0.969 in experiment [2] (first compound 2.53 µM); 0.858 in experiment [2] (first compound 8 µM); 0.395 in experiment [3] (first compound 0.08 µM); 0.308 in experiment [3] (first compound 0.8 µM); 0.329 in experiment [3] (first compound 2.53 µM); 0.339 in experiment [3] (first compound 8 µM). Also, the relative viability amounted to 0.726 with Ruboxistaurin + Olaparib (first compound 0.08 µM); 0.555 with Ruboxistaurin + Olaparib (first compound 0.8 µM); 0.905 in the experiment with Ruboxistaurin + Olaparib (first compound 2.53 µM); 0.465 in the experiment with Ruboxistaurin + Olaparib (first compound 8 µM); 0.382 in experiment [4] (first compound 0.08 µM); 0.363 in experiment [4] (first compound 0.8 µM). The figures for the relative viability in experiment [4] (first compound 2.53 µM) and in experiment [4] (first compound 8 µM) were 0.389 and 0.427, respectively.
As to NCI-H1944, the relative viability was 1.08 in experiment [1] (first compound 0.08 µM); 1 in experiment [1] (first compound 0.8 µM); 1.04 in experiment [1] (first compound 2.53 µM); 1.09 in experiment [1] (first compound 8 µM); 0.933 in experiment [2] (first compound 0.08 µM); 0.844 in experiment [2] (first compound 0.8 µM). Besides, the relative viability in experiment [2] (first compound 2.53 µM) is 0.856; in experiment [2] (first compound 8 µM) it was 0.719; in experiment [3] (first compound 0.08 µM), 0.209; in experiment [3] (first compound 0.8 µM) it was 0.204; in experiment [3] (first compound 2.53 µM), 0.205; in experiment [3] (first compound 8 µM) it was 0.189. Also, the relative viability was 0.422 with Ruboxistaurin + Olaparib (first compound 0.08 µM); 0.353 with Ruboxistaurin + Olaparib (first compound 0.8 µM); 0.38 with Ruboxistaurin + Olaparib (first compound 2.53 µM); 0.393 in the experiment with Ruboxistaurin + Olaparib (first compound 8 µM); 0.439 in experiment [4] (first compound 0.08 µM); 0.403 in experiment [4] (first compound 0.8 µM). Also, the relative viability was 0.405 in experiment [4] (first compound 2.53 µM) and 0.46 in experiment [4] (first compound 8 µM).
Consider LK-2, for which the relative viability worked out at 0.893 in experiment [1] (first compound 0.08 µM); 0.792 in experiment [1] (first compound 0.8 µM); 0.875 in experiment [1] (first compound 2.53 µM); 0.674 in experiment [1] (first compound 8 µM); 1.32 in experiment [2] (first compound 0.08 µM); 0.962 in experiment [2] (first compound 0.8 µM). The relative viability in experiment [2] (first compound 2.53 µM) was found to be 0.927; in experiment [2] (first compound 8 µM), 0.892; in experiment [3] (first compound 0.08 µM), 0.283; in experiment [3] (first compound 0.8 µM), 0.237; in experiment [3] (first compound 2.53 µM) it was 0.264; in experiment [3] (first compound 8 µM), 0.242. The relative viability with Ruboxistaurin + Olaparib (first compound 0.08 µM) worked out at 0.741; with Ruboxistaurin + Olaparib (first compound 0.8 µM), 0.687; in the experiment with Ruboxistaurin + Olaparib (first compound 2.53 µM) it was 0.649; with Ruboxistaurin + Olaparib (first compound 8 µM) it was 0.505; in experiment [4] (first compound 0.08 µM), 0.356; in experiment [4] (first compound 0.8 µM) it was 0.315. Besides, the results for the relative viability in experiment [4] (first compound 2.53 µM) and in experiment [4] (first compound 8 µM) were 0.402 and 0.238, respectively.
As for PC-3 [JPC-3], the relative viability came out at 0.89 in experiment [1] (first compound 0.08 µM); 0.757 in experiment [1] (first compound 0.8 µM); 0.813 in experiment [1] (first compound 2.53 µM); 0.829 in experiment [1] (first compound 8 µM); 1.06 in experiment [2] (first compound 0.08 µM); 1.03 in experiment [2] (first compound 0.8 µM). The relative viability in experiment [2] (first compound 2.53 µM) worked out at 1.02; in experiment [2] (first compound 8 µM) it was 1.09; in experiment [3] (first compound 0.08 µM), 1; in experiment [3] (first compound 0.8 µM), 0.97; in experiment [3] (first compound 2.53 µM), 0.967; in experiment [3] (first compound 8 µM), 0.944. Also, the relative viability was 1.24 with Ruboxistaurin + Olaparib (first compound 0.08 µM); 1.09 with Ruboxistaurin + Olaparib (first compound 0.8 µM); 1.08 with Ruboxistaurin + Olaparib (first compound 2.53 µM); 1.17 with Ruboxistaurin + Olaparib (first compound 8 µM); 0.897 in experiment [4] (first compound 0.08 µM); 0.814 in experiment [4] (first compound 0.8 µM). The relative viability was 0.922 in experiment [4] (first compound 2.53 µM) and 0.838 in experiment [4] (first compound 8 µM).
Regarding COR-L23, the relative viability came to 1.16 in experiment [1] (first compound 0.08 µM); 1.01 in experiment [1] (first compound 0.8 µM); 1.03 in experiment [1] (first compound 2.53 µM); 0.998 in experiment [1] (first compound 8 µM); 1.06 in experiment [2] (first compound 0.08 µM); 0.951 in experiment [2] (first compound 0.8 µM). Moreover, the relative viability in experiment [2] (first compound 2.53 µM) was 1.11; in experiment [2] (first compound 8 µM), 1.05; in experiment [3] (first compound 0.08 µM) it was 0.489; in experiment [3] (first compound 0.8 µM), 0.399; in experiment [3] (first compound 2.53 µM), 0.549; in experiment [3] (first compound 8 µM), 0.602. For the same cell line, the relative viability came to 0.409 in the experiment with Ruboxistaurin + Olaparib (first compound 0.08 µM); 0.377 with Ruboxistaurin + Olaparib (first compound 0.8 µM); 0.387 with Ruboxistaurin + Olaparib (first compound 2.53 µM); 0.326 with Ruboxistaurin + Olaparib (first compound 8 µM); 0.427 in experiment [4] (first compound 0.08 µM); 0.384 in experiment [4] (first compound 0.8 µM). The relative viability was determined as 0.467 in experiment [4] (first compound 2.53 µM) and 0.487 in experiment [4] (first compound 8 µM).
